Experimental data as given in article PMC5970165, “Development and validation of a LC-MS/MS assay for pharmacokinetic studies of complement C5a receptor antagonists PMX53 and PMX205 in mice” (Scientific Reports, 2018).
“And” between values parts separate entries of the source, which are not always exact repeats. Equal values may be shown once. Bridge positions count the residues as written; N and C are the ends. Square brackets hold non-standard residues; d marks the D form. Peptide text beside a SMILES is read from it. * marks the point of attachment. Hydrocinnamoyl = O=C(CCc1ccccc1)*; dCha = N[C@H](CC1CCCCC1)C(=O)O; Orn = NCCC[C@H](N)C(=O)O

Legend:
in vivo = settings: male, C57BL/6 J, mouse, iv, 1 mg/kg
[1] = Intestinal environment stability (intestinal washing and intestinal homogenate); settings: 1 µg/ml, 37 °C, up to 60 min
[2] = Intravenous pharmacokinetics in mice (plasma, brain, spinal cord; LC-MS/MS, non-compartmental analysis); settings: for MRT inf: MRT 0-inf_obs
[3] = Serum stability, incubation at 37 °C; settings: mouse serum, 1 µg/ml, up to 60 min
[4] = Plasma stability, incubation at 37 °C; settings: mouse plasma, 1 µg/ml, up to 60 min
[5] = Gastric environment stability (gastric lavage fluid and gastric homogenate); settings: 1 µg/ml, 37 °C, up to 60 min
[6] = brain, single i.v. 1 mg/kg, mice
[7] = male, C57BL/6 J, mouse, brain, iv, 1 mg/kg, single i.v. 1 mg/kg, mice
[8] = male, C57BL/6 J, mouse, plasma, iv, 1 mg/kg
[9] = male, C57BL/6 J, mouse, plasma, iv, 1 mg/kg, single i.v. 1 mg/kg, mice
[10] = male, C57BL/6 J, mouse, spinal cord, iv, 1 mg/kg, single i.v. 1 mg/kg, mice
[11] = spinal cord, single i.v. 1 mg/kg, mice

Question: For `CC(=O)N[C@@H](Cc1ccccc1)C(=O)N[C@H]1CCCNC(=O)[C@H](CCCNC(=N)N)NC(=O)[C@H](Cc2c[nH]c3ccccc23)NC(=O)[C@@H](CC2CCCCC2)NC(=O)[C@@H]2CCCN2C1=O` [PMX53, Ac-Phe-[Orn-Pro-dCha-Trp-Arg]], which AUC(0-inf) (in vivo) is on record?
Answer: 3830 ng·h/mL

Question: And the AUC(0-t) (in vivo)?
Answer: 3410 ng·h/mL

Question: What about the clearance (in vivo) of the same compound?
Answer: 0.18 mL/min

Question: What about the Cmax (in vivo; Cmax) of the same compound?
Answer: 11900 ng/mL

Question: And the Vd (in vivo; Vss_obs)?
Answer: 0.00328 L

Question: What about the Vd (in vivo; Vz_obs) of the same compound?
Answer: 0.00826 L

Question: Which results are given for `N=C(N)NCCC[C@@H]1NC(=O)[C@H](Cc2c[nH]c3ccccc23)NC(=O)[C@@H](CC2CCCCC2)NC(=O)[C@@H]2CCCN2C(=O)[C@@H](NC(=O)CCc2ccccc2)CCCNC1=O` [PMX205, hydrocinnamate-[Orn-Pro-dCha-Trp-Arg]] (Hydrocinnamoyl-[Orn]P[dCha]WR; lactam 1-C)?
Answer: stability in intestinal homogenates (unchanged form) ([1]; mouse intestinal homogenates): greater than 35%; stability in intestinal washing (unchanged form) ([1]; mouse intestinal washing): more than 85%; AUC 0-inf_obs [2, 6]: 12.18 µg·min/g; Cl_obs [2, 6]: 2.46 g/min; Vss_obs [2, 6]: 553.84 g; Vz_obs [2, 6]: 572.84 g; AUC(0-t) ([2]; brain, t = 90 min, single i.v. 1 mg/kg, mice): 4.18 µg·min/g; Cmax [2, 7]: 108 ng/g; MRT inf [2, 7]: 3.75 h; half-life ([2]; male, C57BL/6 J, mouse, brain, iv, 1 mg/kg, t1/2, brain, single i.v. 1 mg/kg, mice): 2.69 h; AUC(0-inf) [2, 8]: 5810 ng·h/mL; AUC(0-t) [2, 8]: 5800 ng·h/mL; clearance [2, 8]: 0.086 mL/min; Cmax [2, 9]: 29000 ng/mL; MRT inf [2, 9]: 0.15 h; Vd ([2]; male, C57BL/6 J, mouse, plasma, iv, 1 mg/kg, Vss_obs, plasma, single i.v. 1 mg/kg, mice): 0.00079 L; Vd ([2]; male, C57BL/6 J, mouse, plasma, iv, 1 mg/kg, Vz_obs, single i.v. 1 mg/kg, mice): 0.00132 L; half-life ([2]; male, C57BL/6 J, mouse, plasma, iv, 1 mg/kg, t1/2, plasma, single i.v. 1 mg/kg, mice): 0.17 h; Cmax [2, 10]: 213 ng/g; MRT inf [2, 10]: 2.49 h; half-life ([2]; male, C57BL/6 J, mouse, spinal cord, iv, 1 mg/kg, t1/2, spinal cord, single i.v. 1 mg/kg, mice): 1.78 h; AUC 0-inf_obs [2, 11]: 17.42 µg·min/g; Cl_obs [2, 11]: 1.722 g/min; Vss_obs [2, 11]: 257.98 g; Vz_obs [2, 11]: 265.65 g; AUC(0-t) ([2]; spinal cord, t = 90 min, single i.v. 1 mg/kg, mice): 7.95 µg·min/g; stability in serum (percentage of concentration detected vs t = 0 min) [3]: 91.4 ± 1.4%; stability in plasma (percentage of concentration detected vs t = 0 min) [4]: 91.4 ± 3.1%; stability in gastric homogenates (unchanged form, % of t = 0 min) ([5]; mouse gastric homogenates): 6.7 ± 4.2%; stability in gastric lavage (unchanged form, % of t = 0 min) ([5]; mouse gastric lavage fluid): < 25% and 23.3 ± 1.7%
